In patent publication US5324648A, “Substituted isocoumarins as serine protease inhibitors and anti-inflammatory agents” (Georgia Tech Research Corporation, priority 1992, dated 1994):
Structures can show the parent of a compound that is named as a salt.

Experiments:
complement protein D = complement protein D (Homo sapiens, UniProt P00746); assay: Inactivation rate of complement protein D; assay type: biochemical; settings: Table II; pH 7.5, 25° C; [I] 0.05 to 1.29 mM; read-out: kobs/[I]
Procedure: (§1) Inactivation rates of serine proteases by substituted isocoumarins were measured by the incubation method. An aliquot of inhibitor (25 or 50 μl) in Me2 SO was added to a buffered enzyme solution (0.01-2.3 μM) to initiate the inactivation. Aliquots (50 μl) were withdrawn at various intervals and the residual enzymatic activity was measured. Me2 SO concentration in the reaction mixture was 8-12% (v/v). 0.1 Hepes, 0.01M CaCl2, pH 7.5 buffer was utilized for trypsin and coagulation enzymes. 0.1M Hepes, 0.5M NaCl, pH 7.5 was utilized for other serine proteases. The inhibitor concentrations are shown in all the tables. Peptide thioesters or peptide nitroanilides with appropriate sequence were used as substrates for various serine proteases. All peptide thioester hydrolysis rates were measured with assay mixtures containing 4,4'-dithiodipyridine (ε324 =19800M^-1 cm^-1; Grasetti & Murray, Arch. Biochem. Biophys. 119, pp 41-49 (1967)). Peptide 4-nitroanilide nitroanilide hydrolysis was measured at 410 nm (ε410 =8800M^-1 cm^-1; Erlanger et al., Arch. Biochem. Biophys. 95, pp 271-278 (1961)). First order inactivation rate constant (kobs) were obtained from plots of ln (vt /vo) vs time, and the correlation coefficients were greater than 0.98.
^a Conditions were 0.1M Hepes, 0.5M NaCl, pH 7.5, 8-10% Me2 SO
and 25° C. Inactivation rates were measured by incubation method.
Enzyme concentrations were as follows: protein D, 1-9 μM; C2, 0.7-1
μM; B, 1.8 μM; Bb, 0.3-0.8 μM; Cl^- s, 0.07 μM; Cl^-

human plasmin = biological target: T1, human plasmin (Homo sapiens, UniProt P00747); assay: Inactivation rate of human plasmin; assay type: biochemical; settings: Table VI; pH 7.5, 25° C; [I] 4 to 330 μM; read-out: kobs/[I]
T1 construct: human plasmin; from tissue; host or cells: human plasma
T1 sequence (P00747 581-810 limits assumed): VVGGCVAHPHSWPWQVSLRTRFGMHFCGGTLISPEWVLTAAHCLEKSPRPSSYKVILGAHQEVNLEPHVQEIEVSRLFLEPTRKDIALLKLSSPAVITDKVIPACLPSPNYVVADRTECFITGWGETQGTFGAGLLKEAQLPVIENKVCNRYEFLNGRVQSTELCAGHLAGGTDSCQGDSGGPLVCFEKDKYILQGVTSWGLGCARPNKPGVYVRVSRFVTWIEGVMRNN
T1 sequence (P00747 97-580 partner limits assumed): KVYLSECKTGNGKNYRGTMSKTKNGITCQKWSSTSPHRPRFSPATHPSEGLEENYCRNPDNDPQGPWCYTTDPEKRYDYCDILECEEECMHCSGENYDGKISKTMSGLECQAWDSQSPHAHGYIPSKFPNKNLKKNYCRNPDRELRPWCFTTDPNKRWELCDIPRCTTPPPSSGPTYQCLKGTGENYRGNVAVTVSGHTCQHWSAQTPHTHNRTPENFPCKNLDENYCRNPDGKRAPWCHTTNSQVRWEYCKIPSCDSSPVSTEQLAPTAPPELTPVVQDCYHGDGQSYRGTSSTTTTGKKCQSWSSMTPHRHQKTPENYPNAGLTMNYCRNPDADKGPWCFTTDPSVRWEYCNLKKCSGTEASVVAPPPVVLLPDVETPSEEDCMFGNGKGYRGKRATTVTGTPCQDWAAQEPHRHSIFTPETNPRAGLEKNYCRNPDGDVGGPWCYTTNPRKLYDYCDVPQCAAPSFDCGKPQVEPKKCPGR

[1] = biological target: T2, human leukocyte elastase (HLE) (Homo sapiens, UniProt P08246); assay: Inactivation of human leukocyte elastase (HLE); assay type: biochemical; settings: Table IV; pH 7.5, 25° C; [I] 0.001 to 0.18 mM; read-out: kobs/[I]
T2 construct: from tissue; host or cells: human leukocytes (from the name)
T2 sequence (P08246 30-267): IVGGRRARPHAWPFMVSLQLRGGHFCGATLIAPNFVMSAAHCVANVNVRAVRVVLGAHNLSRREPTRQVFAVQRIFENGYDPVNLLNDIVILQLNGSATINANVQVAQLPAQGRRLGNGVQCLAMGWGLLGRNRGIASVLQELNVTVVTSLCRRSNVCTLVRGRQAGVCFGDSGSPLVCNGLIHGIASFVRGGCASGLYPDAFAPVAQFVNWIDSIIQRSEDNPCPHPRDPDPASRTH

[2] = biological target: T3, porcine pancreatic elastase (PPE) (Sus scrofa, UniProt P00772); assay: Inactivation of porcine pancreatic elastase (PPE); assay type: biochemical; settings: Table IV; pH 7.5, 25° C; [I] 0.01 to 0.51 mM; read-out: kobs/[I]
T3 construct: from tissue; host or cells: porcine pancreas (from the name)
T3 sequence (P00772 27-266): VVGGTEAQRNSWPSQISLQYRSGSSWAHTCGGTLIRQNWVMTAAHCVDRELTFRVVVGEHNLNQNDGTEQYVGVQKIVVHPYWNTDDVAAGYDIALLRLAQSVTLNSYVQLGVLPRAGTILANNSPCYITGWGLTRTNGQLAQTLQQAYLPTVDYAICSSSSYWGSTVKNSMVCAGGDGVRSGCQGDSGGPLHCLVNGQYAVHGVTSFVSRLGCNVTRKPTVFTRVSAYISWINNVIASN
Procedure: Inactivation rates of serine proteases by substituted isocoumarins were measured by the incubation method. An aliquot of inhibitor (25 or 50 μl) in Me2 SO was added to a buffered enzyme solution (0.01-2.3 μM) to initiate the inactivation. Aliquots (50 μl) were withdrawn at various intervals and the residual enzymatic activity was measured. Me2 SO concentration in the reaction mixture was 8-12% (v/v). 0.1 Hepes, 0.01M CaCl2, pH 7.5 buffer was utilized for trypsin and coagulation enzymes. 0.1M Hepes, 0.5M NaCl, pH 7.5 was utilized for other serine proteases. […] Peptide thioesters or peptide nitroanilides with appropriate sequence were used as substrates for various serine proteases. All peptide thioester hydrolysis rates were measured with assay mixtures containing 4,4'-dithiodipyridine (ε324 =19800M^-1 cm^-1 ; Grasetti & Murray, Arch. Biochem. Biophys. 119, pp 41-49 (1967)). Peptide 4-nitroanilide nitroanilide hydrolysis was measured at 410 nm (ε410 =8800M^-1 cm^-1 ; Erlanger et al., Arch. Biochem. Biophys. 95, pp 271-278 (1961)). First order inactivation rate constant (kobs) were obtained from plots of ln (vt /vo) vs time, and the correlation coefficients were greater than 0.98.
^a Inactivation rates were measured at 0.1M Hepes, 0.5 NaCl, pH 7.5,
8-12% Me2 SO and 25° C. by incubation method.
^a Inhibition rates were measured in 0.1M Hepes, 0.05M NaCl, pH 7.5
buffer, 8-9% Me2 SO and at 25° C.
^a Inhibition constants were in 0.1M Hepes, 0.5M NaCl, pH 7.5 buffer,
8-9% Me2 SO and at 25° C.
^a Inhibition rates were measured in 0.1M Hepes, 0.5M NaCl, 2.5%
Me2 SO, pH 7,5 and at 25° C.
^a Inhibition was measured in 0.1M Hepes, 0.5M NaCl, pH 7.5 buffer,
5-10% Me2 SO and at 25° C. Suc--Val--Pro--Phe--NA (0.48 mM)
was used as the substrate for chymotrypsin and cat G.
^a Inhibition rates were measured in 0.1M Hepes, 0.5M NaCl, pH 7.5

cathepsin G = biological target: T4, cathepsin G (Homo sapiens, UniProt P08311); assay: Inactivation of cathepsin G; assay type: biochemical; settings: Table IV; for kinact/KI: pH 7.5, 25° C, [I] 0.002 to 0.35 mM, read-out: kobs/[I]
T4 construct: from tissue; host or cells: human leukocytes
T4 sequence (P08311 21-255): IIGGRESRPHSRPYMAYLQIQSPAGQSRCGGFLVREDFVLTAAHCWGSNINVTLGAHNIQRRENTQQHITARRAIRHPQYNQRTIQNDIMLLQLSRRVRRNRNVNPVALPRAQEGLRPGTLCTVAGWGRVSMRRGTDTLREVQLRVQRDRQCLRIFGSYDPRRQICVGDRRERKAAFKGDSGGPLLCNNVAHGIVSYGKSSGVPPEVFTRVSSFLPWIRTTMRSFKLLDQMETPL

bovine trypsin = biological target: T5, bovine trypsin (Bos taurus, UniProt P00760); assay: Inactivation rate of bovine trypsin; assay type: biochemical; settings: Table I; pH 7.5, 25° C; [I] 1 to 12 μM; read-out: kobs/[I]
T5 sequence (P00760 24-246): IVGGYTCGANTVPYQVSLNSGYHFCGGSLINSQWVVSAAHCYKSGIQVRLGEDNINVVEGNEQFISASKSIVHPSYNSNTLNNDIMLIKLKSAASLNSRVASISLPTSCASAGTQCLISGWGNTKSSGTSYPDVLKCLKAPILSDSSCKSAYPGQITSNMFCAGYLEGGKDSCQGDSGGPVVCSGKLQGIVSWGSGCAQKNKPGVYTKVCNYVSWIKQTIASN
Procedure: as §1
(§2) ^a Conditions were as 0.1M Hepes, 0.01M CaCl2, pH 7.5 and 8-12%
(§3) Me2 SO and 25° C. Rate constants were measured by incubation
(§4) method unless otherwise noted. An aliquot of inhibitor was added to an
(§5) enzyme solution and aliquots removed with time and assayed for remaining
(§6) enzymatic activity. Firstorder rate constants, kobs were obtained
(§7) from the plots of ln(vt /vo) versus time.
(§8) ^a Inhibition rates were measured in 0.1M Hepes, 0.01M CaCl2, pH
(§9) 7.5 buffer, 8% Me2 SO and at 25° C.

bovine thrombin = biological target: T6, bovine thrombin (Bos taurus, UniProt P00735); assay: Inactivation rate of bovine thrombin; assay type: biochemical; settings: Table I; pH 7.5, 25° C; [I] 0.3 to 400 μM; read-out: kobs/[I]
T6 construct: bovine thrombin
Procedure: as §1, §2, §3, §4, §5, §6, §7, §8, §9

[3] = biological target: sheep lung lymph tryptase; assay: Inactivation rate of sheep lung lymph tryptase; assay type: biochemical; settings: Table III; pH 7.5, 25° C; [I] 10 to 460 μM
Procedure: Inactivation rates of serine proteases by substituted isocoumarins were measured by the incubation method. An aliquot of inhibitor (25 or 50 μl) in Me2 SO was added to a buffered enzyme solution (0.01-2.3 μM) to initiate the inactivation. Aliquots (50 μl) were withdrawn at various intervals and the residual enzymatic activity was measured. […] 0.1 Hepes, 0.01M CaCl2, pH 7.5 buffer was utilized for trypsin and coagulation enzymes. […] The inhibitor concentrations are shown in all the tables. Peptide thioesters or peptide nitroanilides with appropriate sequence were used as substrates for various serine proteases.
^a Inactivation rates were measured at 0.1M Hepes, 0.5M NaCl, pH 7.5
buffer, 8% Me2 SO and 25° C.

[4] = biological target: T7, porcine pancreatic kallikrein (Sus scrofa, UniProt P00752); assay: Inactivation rate of porcine pancreatic kallikrein; assay type: biochemical; settings: Table I; pH 7.5, 25° C; [I] 0.4 to 300 μM; read-out: kobs/[I]
T7 construct: from tissue; host or cells: porcine pancreas (from the name)
T7 sequence (P00752 8-246): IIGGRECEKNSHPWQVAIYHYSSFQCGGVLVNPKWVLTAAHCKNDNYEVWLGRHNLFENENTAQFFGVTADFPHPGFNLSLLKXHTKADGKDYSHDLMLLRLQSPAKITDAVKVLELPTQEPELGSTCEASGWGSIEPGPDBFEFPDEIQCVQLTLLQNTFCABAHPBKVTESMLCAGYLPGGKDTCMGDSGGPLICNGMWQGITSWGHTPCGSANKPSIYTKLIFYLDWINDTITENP

human plasma kallikrein = biological target: T8, human plasma kallikrein (Homo sapiens, UniProt P03952); assay: Inactivation rate of human plasma kallikrein; assay type: biochemical; settings: Table I; pH 7.5, 25° C; [I] 3 to 330 μM (footnote g); read-out: kobs/[I]
T8 construct: human plasma kallikrein; from tissue; host or cells: human plasma (from the name)
T8 sequence (P03952 391-638 limits assumed): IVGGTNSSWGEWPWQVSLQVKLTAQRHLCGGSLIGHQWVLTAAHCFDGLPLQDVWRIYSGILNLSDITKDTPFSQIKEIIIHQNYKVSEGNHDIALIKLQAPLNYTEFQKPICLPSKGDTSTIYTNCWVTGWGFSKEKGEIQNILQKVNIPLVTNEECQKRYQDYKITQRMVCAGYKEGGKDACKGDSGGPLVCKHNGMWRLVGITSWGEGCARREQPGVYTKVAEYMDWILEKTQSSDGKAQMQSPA
T8 sequence (P03952 20-390 partner limits assumed): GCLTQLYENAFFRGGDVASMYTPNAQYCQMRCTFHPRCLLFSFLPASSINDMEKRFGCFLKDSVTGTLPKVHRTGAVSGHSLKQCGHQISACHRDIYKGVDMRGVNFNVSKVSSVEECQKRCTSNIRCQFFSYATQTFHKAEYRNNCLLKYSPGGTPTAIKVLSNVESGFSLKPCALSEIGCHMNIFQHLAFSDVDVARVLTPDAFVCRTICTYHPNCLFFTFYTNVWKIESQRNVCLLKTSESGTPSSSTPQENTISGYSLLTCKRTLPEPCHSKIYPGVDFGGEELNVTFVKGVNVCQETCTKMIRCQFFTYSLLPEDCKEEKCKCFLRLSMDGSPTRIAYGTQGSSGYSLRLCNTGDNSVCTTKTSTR
Procedure: as §1, §2, §3, §4, §5, §6, §7

human factor XIa = biological target: T9, human factor XIa (Homo sapiens, UniProt P03951); assay: Inactivation rate of human factor XIa; assay type: biochemical; settings: Table I; pH 7.5, 25° C; [I] 3 to 330 μM; read-out: kobs/[I]
T9 construct: human factor XIa
T9 sequence (P03951 388-625 limits assumed): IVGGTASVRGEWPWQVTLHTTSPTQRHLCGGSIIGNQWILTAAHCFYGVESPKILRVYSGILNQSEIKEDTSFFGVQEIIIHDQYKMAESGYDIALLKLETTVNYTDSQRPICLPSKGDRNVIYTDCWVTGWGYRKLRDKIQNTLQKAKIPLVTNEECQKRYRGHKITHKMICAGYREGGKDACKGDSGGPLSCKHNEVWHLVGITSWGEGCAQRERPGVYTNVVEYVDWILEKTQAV
T9 sequence (P03951 19-387 partner limits assumed): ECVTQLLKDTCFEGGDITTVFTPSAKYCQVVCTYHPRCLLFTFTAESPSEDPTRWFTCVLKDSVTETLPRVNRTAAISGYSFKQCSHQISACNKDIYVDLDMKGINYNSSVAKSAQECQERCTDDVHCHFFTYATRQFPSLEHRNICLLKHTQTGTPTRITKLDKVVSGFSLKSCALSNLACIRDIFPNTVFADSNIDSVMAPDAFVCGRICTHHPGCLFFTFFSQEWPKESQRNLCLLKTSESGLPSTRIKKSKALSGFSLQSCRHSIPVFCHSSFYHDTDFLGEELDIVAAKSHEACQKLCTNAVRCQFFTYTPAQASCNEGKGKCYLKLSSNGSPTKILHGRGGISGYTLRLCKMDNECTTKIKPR
Procedure: as §1, §2, §3, §4, §5, §6, §7, §8, §9

human factor XIIa = biological target: T10, human factor XIIa (Homo sapiens, UniProt P00748); assay: Inactivation rate of human factor XIIa; assay type: biochemical; settings: Table I; pH 7.5, 25° C; [I] 3 to 330 μM; read-out: kobs/[I]
T10 construct: human factor XIIa
T10 sequence (P00748 373-615 limits assumed): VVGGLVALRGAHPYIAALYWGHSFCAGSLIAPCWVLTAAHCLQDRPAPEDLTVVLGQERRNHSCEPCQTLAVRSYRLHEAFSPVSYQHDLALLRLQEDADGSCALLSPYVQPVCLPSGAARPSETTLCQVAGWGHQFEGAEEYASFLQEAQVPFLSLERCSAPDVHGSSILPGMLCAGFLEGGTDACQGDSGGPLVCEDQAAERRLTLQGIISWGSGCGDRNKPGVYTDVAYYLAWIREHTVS
T10 sequence (P00748 20-372 partner limits assumed): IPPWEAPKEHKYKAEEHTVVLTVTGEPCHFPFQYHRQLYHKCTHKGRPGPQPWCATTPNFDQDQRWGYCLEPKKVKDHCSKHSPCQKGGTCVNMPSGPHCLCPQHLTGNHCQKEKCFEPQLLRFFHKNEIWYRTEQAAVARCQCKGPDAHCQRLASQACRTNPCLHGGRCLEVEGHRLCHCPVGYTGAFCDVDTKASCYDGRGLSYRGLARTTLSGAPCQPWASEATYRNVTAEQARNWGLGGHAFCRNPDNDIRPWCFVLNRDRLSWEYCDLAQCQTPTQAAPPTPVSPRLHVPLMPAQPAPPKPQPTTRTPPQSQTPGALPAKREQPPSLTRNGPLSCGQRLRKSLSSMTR
Procedure: as §1, §2, §3, §4, §5, §6, §7, §8, §9

[5] = Spontaneous hydrolysis in Hepes buffer; assay type: physicochemical; settings: hepes buffer; 0.1 Hepes, 0.5M NaCl, pH 7.5, 9% Me2SO, 25° C; read-out: t1/2 for spontaneous hydrolysis
Procedure: ^a Conditions were 0.1 Hepes, 0.5M NaCl, pH 7.5 and 9% Me2 SO at
25° C. Spontaneous hydrolysis rates were measured
spectrophotometrically by monitoring the decrease in absorbance due to th
isocoumarin ring system (wavelength 335-380 nm) using the firstorder rate

chymotrypsin = chymotrypsin (Bos taurus, UniProt P00766); assay: Inactivation of chymotrypsin; assay type: biochemical, bovine; settings: Table IV; pH 7.5, 25° C; [I] 0.004 to 0.33 mM; read-out: kobs/[I]
bovine factor Xa = biological target: T11, bovine factor Xa (Bos taurus, UniProt P00743); assay: Inactivation rate of bovine factor Xa; assay type: biochemical; settings: Table I; pH 7.5, 25° C; [I] 0.4 to 310 μM; read-out: kobs/[I]
T11 construct: bovine factor Xa
T11 sequence (P00743 234-492 limits assumed): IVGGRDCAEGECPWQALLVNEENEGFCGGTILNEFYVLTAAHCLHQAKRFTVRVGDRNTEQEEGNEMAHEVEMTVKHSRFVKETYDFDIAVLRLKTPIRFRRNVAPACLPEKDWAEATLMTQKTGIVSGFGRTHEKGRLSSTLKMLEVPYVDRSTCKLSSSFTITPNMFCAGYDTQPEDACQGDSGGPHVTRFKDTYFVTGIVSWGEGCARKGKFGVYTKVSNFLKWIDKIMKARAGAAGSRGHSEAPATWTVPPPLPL
T11 sequence (P00743 41-180 partner limits assumed): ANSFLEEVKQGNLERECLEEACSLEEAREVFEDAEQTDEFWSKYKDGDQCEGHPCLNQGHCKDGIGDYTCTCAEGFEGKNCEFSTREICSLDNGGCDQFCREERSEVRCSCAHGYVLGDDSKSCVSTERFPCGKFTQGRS

Chain of complement protein D (P00746 26-253): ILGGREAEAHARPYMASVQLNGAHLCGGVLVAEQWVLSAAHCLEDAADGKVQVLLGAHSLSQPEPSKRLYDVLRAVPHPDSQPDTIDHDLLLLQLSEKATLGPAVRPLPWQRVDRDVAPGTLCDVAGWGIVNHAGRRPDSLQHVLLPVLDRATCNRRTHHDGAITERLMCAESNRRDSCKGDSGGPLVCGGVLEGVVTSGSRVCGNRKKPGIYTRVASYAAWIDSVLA

Row | SMILES | kinact/KI (complement protein D) [M⁻¹ s⁻¹] | kinact/KI (human plasmin) [M⁻¹ s⁻¹] | kinact/KI [1] [M⁻¹ s⁻¹] | kinact/KI [2] [M⁻¹ s⁻¹] | kinact/KI (cathepsin G) [M⁻¹ s⁻¹] | kinact/KI (bovine trypsin) [M⁻¹ s⁻¹] | kinact/KI (bovine thrombin) [M⁻¹ s⁻¹] | kobs/[I] [3] [M⁻¹ s⁻¹] | kinact/KI [4] [M⁻¹ s⁻¹] | kinact/KI (human plasma kallikrein) [M⁻¹ s⁻¹] | kinact/KI (human factor XIa) [M⁻¹ s⁻¹] | kinact/KI (human factor XIIa) [M⁻¹ s⁻¹] | half-life [5] [min] | kinact/KI (chymotrypsin) [M⁻¹ s⁻¹] | kinact/KI (bovine factor Xa) [M⁻¹ s⁻¹] | inhibition at 47 µM (cathepsin G; not time dependent, at 47 μM) [%] | inhibition at 530 µM (cathepsin G; not time dependent, at 0.53 mM) [%]
1 | CCOc1oc(=O)c2ccccc2c1Cl [3-ethoxy-4-chloroisocoumarin, reference compound] | 0.25 | – | – | – | – | – | – | – | – | – | – | – | – | – | – | – | –
2 | COc1oc(=O)c2cc(NC(=O)CN)ccc2c1Cl [7-(glycylamino)-4-chloro-3-methoxyisocoumarin] | – | 1470 | 7710 | 1960 | 4.9 | 32100 | 51.5 | – | – | – | – | – | – | – | – | – | –
3 | COc1oc(=O)c2cc(NC(=O)[C@H](C)N)ccc2c1Cl [7-(Alanylamino)-3-Methoxy-4-Chloroisocoumarin Hydrochloride] | – | 31 | 13500 | 1610 | 20 | 470 | – | – | – | – | – | – | – | – | – | – | –
4 | COc1oc(=O)c2cc(N)ccc2c1Cl [7-amino-3-methoxy-4-chloroisocoumarin, reference compound] | 1.3 | – | – | – | – | – | – | – | – | – | – | – | – | – | – | – | –
5 | NCCCOc1cc2ccccc2c(=O)o1 [3-(3-aminopropoxy)isocoumarin] | – | 36 | 47 | 2.3 | 2.8 | 1200 | 3 | 8.1 | 5 | 30 | 30 | 3 | 606 | 38 | – | – | –
6 | CCOc1cc2ccc(NC(=N)N)cc2c(=O)o1 [7-guanidino-3-ethoxyisocoumarin] | – | – | 1900 | 86 | – | 20000 | 3700 | 150 | 16000 | 44000 | 3100 | 1300 | 136 | 990 | 2700 | 87 | –
7 | N=C(N)Nc1ccc2cc(OCCc3ccccc3)oc(=O)c2c1 [7-guanidino-3-(2-phenylethoxy)isocoumarin] | – | – | 0.9 | – | – | 45000 | 5700 | 150 | 16000 | 62000 | 1200 | 690 | 140 | 2600 | 11000 | – | 87
